Source: ChEMBL document CHEMBL1141367, “Substituted 2-[(4-aminomethyl)phenoxy]-2-methylpropionic acid PPARalpha agonists. 1. Discovery of a novel series of potent HDLc raising agents” (J Med Chem, 2007)

How the values were obtained:
Mus musculus [1] = experiment: Decrease in plasma TG level in human Apo-A-I transgenic C57BL/6 mouse at 5 mg/kg, po; assay type: functional; design: scale not given: the % may be the effect or the level left
Mus musculus [2] = experiment: Increase in HDL cholesterol level in human Apo-A-I transgenic C57BL/6 mouse at 5 mg/kg, po; assay type: functional
[3] = Volume of distribution in Beagle dog at 2 mg/kg, iv; assay type: ADME, organism-based, Canis lupus familiaris; design: dose 2 mg/kg, route intravenous; conditions: in vivo, read-out: Vdss
Mus musculus [4] = experiment: Decrease in plasma TG level in human Apo-A-I transgenic C57BL/6 mouse at 0.5 mg/kg, po; assay type: functional; design: scale not given: the % may be the effect or the level left
[5] = target: T1, Peroxisome proliferator-activated receptor delta (Mus musculus, UniProt P35396)
T1 sequence (P35396 whole entry): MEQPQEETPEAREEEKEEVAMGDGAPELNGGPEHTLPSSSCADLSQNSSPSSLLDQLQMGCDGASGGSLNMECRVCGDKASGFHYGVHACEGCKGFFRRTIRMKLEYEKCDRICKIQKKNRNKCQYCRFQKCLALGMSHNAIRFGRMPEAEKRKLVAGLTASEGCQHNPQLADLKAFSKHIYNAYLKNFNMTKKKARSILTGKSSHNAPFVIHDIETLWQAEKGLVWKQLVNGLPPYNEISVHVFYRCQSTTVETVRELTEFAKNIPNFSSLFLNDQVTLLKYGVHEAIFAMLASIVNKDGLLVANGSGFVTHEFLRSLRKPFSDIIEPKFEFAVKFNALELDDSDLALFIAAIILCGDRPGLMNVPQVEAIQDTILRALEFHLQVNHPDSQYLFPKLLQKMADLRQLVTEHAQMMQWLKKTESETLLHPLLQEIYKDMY
Description: Agonist potency at mouse PPARdelta

[6] = Plasma clearance in Beagle dog at 2 mg/kg, iv; assay type: ADME, organism-based, Canis lupus familiaris; design: dose 2 mg/kg, route intravenous
[7] = target: T2, Peroxisome proliferator-activated receptor alpha (Homo sapiens) (UniProt Q07869); experiment: Agonist potency at PPARalpha expressed in CV1 cells relative to GW-590735; assay type: functional, cell-based; conditions: CV-1
T2 sequence (whole entry): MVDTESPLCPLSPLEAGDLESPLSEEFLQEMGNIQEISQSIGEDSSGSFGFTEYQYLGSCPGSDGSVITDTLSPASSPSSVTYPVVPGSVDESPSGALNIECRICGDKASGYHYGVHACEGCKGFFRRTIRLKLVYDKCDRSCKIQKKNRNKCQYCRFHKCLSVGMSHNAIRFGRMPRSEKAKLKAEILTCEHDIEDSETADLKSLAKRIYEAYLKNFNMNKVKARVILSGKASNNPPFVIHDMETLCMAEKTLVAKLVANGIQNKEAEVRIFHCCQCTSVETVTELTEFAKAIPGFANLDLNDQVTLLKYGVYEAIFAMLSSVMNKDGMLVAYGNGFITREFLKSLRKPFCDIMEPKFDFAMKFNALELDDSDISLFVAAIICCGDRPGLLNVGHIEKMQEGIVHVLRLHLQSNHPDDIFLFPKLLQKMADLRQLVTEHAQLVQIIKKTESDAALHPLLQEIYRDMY

[8] = target: T3, Peroxisome proliferator-activated receptor gamma (Mus musculus, UniProt P37238)
T3 sequence (P37238 whole entry): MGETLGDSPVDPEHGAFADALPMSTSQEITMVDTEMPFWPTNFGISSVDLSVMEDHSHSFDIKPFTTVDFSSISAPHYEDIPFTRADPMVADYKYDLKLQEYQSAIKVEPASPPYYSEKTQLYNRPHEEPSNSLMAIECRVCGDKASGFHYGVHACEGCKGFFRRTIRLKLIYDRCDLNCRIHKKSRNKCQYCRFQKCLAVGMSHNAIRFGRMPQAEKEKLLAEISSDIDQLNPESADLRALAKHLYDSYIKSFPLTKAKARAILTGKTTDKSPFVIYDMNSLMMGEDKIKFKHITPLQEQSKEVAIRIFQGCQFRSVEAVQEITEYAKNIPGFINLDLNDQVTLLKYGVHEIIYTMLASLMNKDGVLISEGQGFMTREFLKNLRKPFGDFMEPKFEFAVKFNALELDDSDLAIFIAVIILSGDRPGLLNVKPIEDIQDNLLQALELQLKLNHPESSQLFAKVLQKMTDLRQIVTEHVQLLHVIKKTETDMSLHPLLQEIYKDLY
Description: Agonist potency at mouse PPARgamma

[9] = target: T4, Peroxisome proliferator-activated receptor alpha (Mus musculus, UniProt P23204)
T4 sequence (P23204 whole entry): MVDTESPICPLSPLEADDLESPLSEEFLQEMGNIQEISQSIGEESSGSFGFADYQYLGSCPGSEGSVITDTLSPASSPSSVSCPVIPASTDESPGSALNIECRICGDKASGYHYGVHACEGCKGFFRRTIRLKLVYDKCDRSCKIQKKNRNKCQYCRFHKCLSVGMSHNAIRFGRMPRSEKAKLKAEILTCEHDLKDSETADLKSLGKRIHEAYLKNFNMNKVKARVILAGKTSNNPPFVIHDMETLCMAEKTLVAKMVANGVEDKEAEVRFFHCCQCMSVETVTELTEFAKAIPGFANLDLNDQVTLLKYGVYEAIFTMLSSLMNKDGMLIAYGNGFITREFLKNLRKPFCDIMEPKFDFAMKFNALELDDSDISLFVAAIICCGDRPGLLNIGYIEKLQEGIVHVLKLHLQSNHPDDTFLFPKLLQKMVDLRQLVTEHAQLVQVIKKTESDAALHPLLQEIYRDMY
Description: Agonist potency at mouse PPARalpha

Mus musculus [10] = experiment: Decrease in plasma TG level in human Apo-A-I transgenic C57BL/6 mouse at 1 mg/kg, po; assay type: functional; design: scale not given: the % may be the effect or the level left
Mus musculus [11] = experiment: Decrease in VLDL cholesterol in human Apo-A-I transgenic C57BL/6 mouse at 1 mg/kg, po; assay type: functional; design: scale not given: the % may be the effect or the level left
Mus musculus [12] = experiment: Decrease in LDL cholesterol level in human Apo-A-I transgenic C57BL/6 mouse at 5 mg/kg, po; assay type: functional; design: scale not given: the % may be the effect or the level left
[13] = Plasma clearance in Wistar rat at 2.7 mg/kg, iv; assay type: ADME, organism-based; design: dose 2.7 mg/kg, route intravenous
[14] = Volume of distribution in Wistar rat at 2.7 mg/kg, iv; assay type: ADME, organism-based; design: dose 2.7 mg/kg, route intravenous; conditions: in vivo, read-out: Vdss
[15] = Half life in Beagle dog plasma at 2 mg/kg, iv; assay type: ADME, organism-based, Canis lupus familiaris; design: dose 2 mg/kg, route intravenous

Q: Which results are given for Cc1nc(-c2ccc(C(F)(F)F)cc2)sc1C(=O)NCc1ccc(OC(C)(C)C(=O)O)cc1 [GW590735]?
A: Activity (Mus musculus [1]): 65%; Activity (Mus musculus [2]): 86%; Vd [3]: 2.8 L/kg; Activity (Mus musculus [4]): 37%; EC50 [5]: 1000 nM; clearance [6]: 13 mL/min/kg; Activity [7]: 95%; EC50 [8]: > 10 µM; EC50 [9]: 15 nM; Activity (Mus musculus [10]): 48%; Activity (Mus musculus [11]): 63%; Activity (Mus musculus [12]): 69%; clearance [13]: 5 mL/min/kg; Vd [14]: 1 L/kg; half-life [15]: 156 min
